Measured values taken from ChEMBL document CHEMBL5532742, “Design and Synthesis of the Linezolid Bioisosteres to Resolve the Serotonergic Toxicity Associated with Linezolid” (ACS Med Chem Lett, 2024).
In brackets after ≈: the same amount, converted by molar mass.

How the values were obtained:
Format in all cases: functional
Details in all cases: time 1 weeks
[1] = test system: Mycobacterium tuberculosis; assay: Antimycobacterial activity against high-grade isoniazid resistant Mycobacterium tuberculosis clinical isolate harboring katG S315T mutant incubated for 1 week by resazurin dye based fluorescence analysis
[2] = test system: Mycobacterium tuberculosis; assay: Antimycobacterial activity against high-grade isoniazid, rifampicin, ethambutol and pyrazinamide resistant Mycobacterium tuberculosis clinical isolate harboring mutations in inhA, katG, rpoB H526D, eis genes incubated for 1 week by resazurin dye based fluorescence analysis
[3] = test system: Mycobacterium tuberculosis; assay: Antimycobacterial activity against low-grade isoniazid resistant Mycobacterium tuberculosis clinical isolate harboring mutation in inhA promoter region incubated for 1 week by resazurin dye based fluorescence analysis
[4] = test system: Mycobacterium tuberculosis; assay: Antimycobacterial activity against high-grade rifampicin resistant Mycobacterium tuberculosis clinical isolate harboring rpoB S531L mutant incubated for 1 week by resazurin dye based fluorescence analysis

Row | SMILES | MIC50 [1] [µM] | MIC50 [2] [µM] | MIC50 [3] [µM] | MIC50 [4] [µM]
1 | CC(=O)NC[C@H]1CN(c2ccc(N3CCOCC3)c(F)c2)C(=O)O1 [LINEZOLID] | 0.42 (≈ 0.142 µg/mL) | 0.81 (≈ 0.273 µg/mL) | 0.12 (≈ 0.0405 µg/mL) | 0.24 (≈ 0.081 µg/mL)
2 | CCS(=O)(=O)NC[C@H]1CN(c2ccc(N3CCOCC3)c(F)c2)C(=O)O1 | 0.53 (≈ 0.205 µg/mL) | 0.92 (≈ 0.356 µg/mL) | 0.14 (≈ 0.0542 µg/mL) | 0.24 (≈ 0.093 µg/mL)
3 | NNC(=O)c1ccncc1 [ISONIAZID] | 11.06 (≈ 1.52 µg/mL) | >100 | 0.98 (≈ 0.134 µg/mL) | 23.03 (≈ 3.16 µg/mL)
4 | O=C(NC[C@H]1CN(c2ccc(N3CCOCC3)c(F)c2)C(=O)O1)C1CC1 | 1.53 (≈ 0.556 µg/mL) | 1.99 (≈ 0.723 µg/mL) | 0.33 (≈ 0.12 µg/mL) | 0.82 (≈ 0.298 µg/mL)
5 | CS(=O)(=O)NC[C@H]1CN(c2ccc(N3CCOCC3)c(F)c2)C(=O)O1 | 10.35 (≈ 3.86 µg/mL) | 8.83 (≈ 3.3 µg/mL) | 0.85 (≈ 0.317 µg/mL) | 1.82 (≈ 0.68 µg/mL)
6 | O=C1O[C@@H](CNS(=O)(=O)c2cccs2)CN1c1ccc(N2CCOCC2)c(F)c1 | 4.52 (≈ 2 µg/mL) | 7.01 (≈ 3.09 µg/mL) | 1.98 (≈ 0.874 µg/mL) | 3.32 (≈ 1.47 µg/mL)
7 | CO[C@H]1/C=C/O[C@@]2(C)Oc3c(C)c(O)c4c(O)c(c(/C=N/N5CCN(C)CC5)c(O)c4c3C2=O)NC(=O)/C(C)=C\C=C\[C@H](C)[C@H](O)[C@@H](C)[C@@H](O)[C@@H](C)[C@H](OC(C)=O)[C@@H]1C [RIFAMPIN] | <0.04 | >100 | <0.04 | 28.15 (≈ 23.2 µg/mL)
8 | O=C(NC[C@H]1CN(c2ccc(N3CCOCC3)c(F)c2)C(=O)O1)c1cccs1 | 4.01 (≈ 1.63 µg/mL) | 5.01 (≈ 2.03 µg/mL) | 1.78 (≈ 0.722 µg/mL) | 2.78 (≈ 1.13 µg/mL)
